A word on the EC50: it is the concentration needed to bring the measured effect to its halfway point.

Like-named read-outs stand apart in the source and are kept apart here.

One experiment concerns T. brucei PSMB4^F24L. Put plainly: Growth inhibition of T. brucei expressing F24L mutant 20S proteasome β4 subunit. Type of experiment: cell-based, Trypanosoma brucei. As for the experimental part: (§1) For determination of 50% growth inhibition, all compounds were dissolved in DMSO, and 200 nL of threefold serially diluted compounds were added into solid-bottom 384-well white plates (Greiner Bio-One, Kremsmunster, Austria) by an Echo 555 acoustic liquid-handling system. Forty microliters of 10^4 cells/mL of T. b. brucei parasites was added into each well, and the plates were incubated in a 5% CO2 incubator at 37 °C for 48 h. Viability of parasites were determined by measuring intracellular ATP levels, using CellTiter-Glo (CTG) luminescent cell viability reagent (Promega, Madison, Wisconsin WI, USA). The EC50 values were determined by using GraphPad Prism software. Growth inhibition assays for all clinical isolates were carried out as described earlier. All experiments had two technical replicates and three biological replicates. Appropriate statistical tests were used for evaluating significance, and mean ± SEM is represented in the tables.

In the next experiment the test system is T. brucei PSMB4^WT. As to the kind of experiment: Growth inhibition of T. brucei expressing wild-type 20S proteasome β4 subunit. It is filed as cell-based. Conditions: Trypanosoma brucei, read-out: T. brucei PSMB4^WT EC50. As for the experimental part: as §1
The conditions of experiment [1]: stage 2 HAT mouse model; cited from earlier work.
For experiment [2], the system named is T. b. brucei (GVR35-VSL2). Put plainly: Meningoencephalic mouse model (stage 2 HAT efficacy model, GVR35) with bioluminescence imaging. Type of experiment: in vivo. As for the experimental part:
The GVR35 mouse CNS model mimics the second (meningoencephalic) stage of African trypanosomiasis. Female CD1 mice (~8 weeks old, from Charles River) were injected intraperitoneally (i.p.) with 3 × 10^4 T. b. brucei (GVR35-VSL2) bloodstream-form parasites. As controls, a group of three untreated mice and another group of three mice treated with diminazene aceturate (DA) were included. […] Mice treated with DA usually relapse after 42 days post-infection. […]
Blood parasitemia was quantified weekly from day 21/22, by microscopy of blood from the tail vein. Mice were imaged for bioluminescence using an in vivo imaging system (IVIS) prior to treatment on day 21/22, and weekly after treatment, as described previously. Briefly, mice, in groups of three, were injected i.p. with 150 mg of D-luciferin (Promega) per kilogram body weight in PBS and imaged after 10 min, using an IVIS Spectrum (PerkinElmer, Waltham, Massachusetts MA, USA). Living Image Software (PerkinElmer) was used for acquisition and analysis of bioluminescence imaging data. Bioluminescence in the same rectangular region of interest (ROI) on whole-body mouse images was quantified and is shown in total flux (photons per second). Images were cropped to the ROIs and composites of images from representative mice are shown. Uncured mice were euthanized within 1 or 2 days of parasite detection in the blood. Cured mice were euthanized between day 92 and 101 post-infection. All the results from the individual experiments were reported as number of mice cured over total number of mice treated. A Kaplan–Meier plot was used for representing the number of mice cured at different treatment doses.

In another experiment the test system is T. b. brucei. As to the kind of experiment: Growth inhibition of T. b. brucei strains BS221, BS221 (P2 KO), STIB950. To be noted: Trypanosoma brucei, mean ± SD. Type of experiment: cell-based. As for the experimental part: The T. b. brucei strain Lister 427 (bloodstream form) parasites were continuously grown in complete HMI-9 medium supplemented with 10% Serum Plus and 10% heat-inactivated fetal bovine serum (FBS). All other parasite strains were cultured as described elsewhere.
as §1, with “Appropriate statistical tests were used for evaluating significance, and mean ± SEM is represented in the tables.” left out

The next experiment has as its system T. b. rhodesiense. Put plainly: Growth inhibition of T. b. rhodesiense strains. It is filed as cell-based. Conditions: Trypanosoma brucei, mean ± SD.
A further experiment concerns T. b. gambiense. As to the kind of experiment: Growth inhibition of T. b. gambiense strains. Conditions: Trypanosoma brucei, mean ± SD. Type of experiment: cell-based.

Regarding `CC(C)C[C@H](NC(=O)[C@H](Cc1ccccc1)NC(=O)c1cnccn1)B(O)O` [Bortezomib, reference compound], the “Shift in growth inhibition concentration, F24L mutant vs wild-type” value in the experiment with T. brucei PSMB4^F24L is on record as “equipotent”. In addition, the EC50 amounted to 1.1 ± 0.26 nM in the experiment on T. brucei PSMB4^F24L (Trypanosoma brucei, read-out: T. brucei PSMB4^F24L EC50) and 0.94 ± 0.05 nM in the experiment with T. brucei PSMB4^WT.
With `CSc1ccc(OCc2ncc([N+](=O)[O-])n2C)cc1` [fexinidazole], the Curative dose in experiment [1] is on record as 200 mg/kg.
On to `CC1(C)OB(O)c2cc(NC(=O)c3ccc(F)cc3C(F)(F)F)ccc21` [acoziborole], for which the Curative dose in experiment [1] is 25 mg/kg.
`N=C(N)c1ccc(/N=N/Nc2ccc(C(=N)N)cc2)cc1` [Diminazene, diminazene aceturate, reference compound]: in experiment [2] (40 mg/kg QD), the “% Cured” value is 0% and the “Mean Day of Relapse” value is recorded as 42 days post infection. Moreover, the “Mice Cured/Total” value in experiment [2] (40 mg/kg QD (control compound lacking brain penetration)) is 0/3.
For the compound `N=C(N)c1ccc(OCCCCCOc2ccc(C(=N)N)cc2)cc1` [Pentamidine, reference compound], the EC50 in the experiment on T. b. brucei (STIB950, strain STIB950, read-out: T. b. brucei EC50) turned out to be 0.5 ± 0.2 nM; in the experiment on T. b. brucei (strain BS221 (P2 KO), read-out: T. b. brucei EC50), 3.1 ± 0.4 nM; with T. b. brucei (strain BS221, read-out: T. b. brucei EC50), 0.3 ± 0.1 nM; with T. b. rhodesiense (RHODESIENSE / STIB900, strain STIB900 Mel^R (melarsoprol-resistant), read-out: T. b. rhodesiense EC50) it was 217 ± 86 nM; with T. b. rhodesiense (RHODESIENSE / STIB900, strain STIB900 Pent^R (pentamidine-resistant), read-out: T. b. rhodesiense EC50) it was 203 ± 54 nM; in the experiment with T. b. gambiense (GAMBIENSE / STIB930, strain STIB930, read-out: T. b. gambiense EC50), 1.4 ± 0.9 nM. Also, the EC50 in the experiment with T. b. gambiense (GAMBIENSE, strain K048, read-out: T. b. gambiense EC50) was determined as 33.9 ± 16 nM; in the experiment with T. b. gambiense (GAMBIENSE, strain R130, read-out: T. b. gambiense EC50), 13.5 ± 4 nM.
With `Nc1nc(N)nc(Nc2ccc([As]3SCC(CO)S3)cc2)n1` (stereo not shown) [Melarsoprol, reference compound], the EC50 was 16.9 ± 8.8 nM with T. b. brucei (STIB950, read-out: T. b. brucei EC50, strain STIB950); 37.7 ± 14.8 nM in the experiment with T. b. brucei (read-out: T. b. brucei EC50, strain BS221 (P2 KO)); 4.7 ± 1.8 nM in the experiment on T. b. brucei (read-out: T. b. brucei EC50, strain BS221); 3.9 ± 2 nM with T. b. rhodesiense (RHODESIENSE / STIB900, read-out: T. b. rhodesiense EC50, strain STIB900); 95.5 ± 24 nM in the experiment on T. b. rhodesiense (RHODESIENSE / STIB900, read-out: T. b. rhodesiense EC50, strain STIB900 Mel^R (melarsoprol-resistant)); 46.8 ± 19 nM in the experiment on T. b. rhodesiense (RHODESIENSE / STIB900, read-out: T. b. rhodesiense EC50, strain STIB900 Pent^R (pentamidine-resistant)). Moreover, the half-maximal effective concentration (EC50) in the experiment with T. b. gambiense (GAMBIENSE / STIB930, read-out: T. b. gambiense EC50, strain STIB930) amounted to 7.1 ± 2.7 nM; with T. b. gambiense (GAMBIENSE, read-out: T. b. gambiense EC50, strain K048), 10.2 ± 1.9 nM; in the experiment on T. b. gambiense (GAMBIENSE, read-out: T. b. gambiense EC50, strain R130), 7.7 ± 3.1 nM.

The values above are taken from publication PMC7157554, “Anti-Trypanosomal Proteasome Inhibitors Cure Hemolymphatic and Meningoencephalic Murine Infection Models of African Trypanosomiasis” (Tropical Medicine and Infectious Disease, 2020).
